# Assay results: the Kinase Knowledgebase extract (Sharma et al. 2016)
# Target: CDK2 (human) (UniProt P24941)
# Experiment: Enzyme Assay
row,IC50,Compound
1,< 100 µM,CCCCOc1ccc(Nc2c(CCCO)c(N[C@H]3CC[C@H](N)CC3)nc3ccnn23)cc1
2,< 100 µM,Cc1c(NC2CCCNC2)nc2ccnn2c1Nc1ccc(-c2cccc(CO)c2)cc1 (stereo not given)
3,< 100 µM,CCc1c(N[C@H]2CC[C@H](N)CC2)nc2ccnn2c1Nc1cccc(OCc2ccccc2)c1
4,< 100 µM,C=CCNc1c(CC)c(N[C@H]2CC[C@H](N)CC2)nc2ccnn12
5,< 100 µM,Cc1c(N[C@H]2CC[C@H](N)CC2)nc2ccnn2c1Nc1ccc2cn[nH]c2c1
6,< 100 µM,COc1ccc(Nc2c(CCCO)c(N[C@H]3CC[C@H](N)CC3)nc3ccnn23)cc1OC
7,< 100 µM,CCOc1ccc(Nc2c(C)c(N[C@H]3CC[C@H](N)CC3)nc3c(C(=O)Nc4cccnc4)cnn23)cc1
8,< 100 µM,Cc1c(NC2CCCNC2)nc2ccnn2c1Nc1ccc(-c2cccc(N)c2)cc1 (stereo not given)
9,< 100 µM,COc1c(N[C@H]2CC[C@H](N)CC2)nc2ccnn2c1Nc1ccc(F)c(Cl)c1
10,< 100 µM,Cc1c(NC2CCCNC2)nc2ccnn2c1Nc1ccc(-c2ccsc2)cc1 (stereo not given)
11,< 100 µM,CCOc1ccc(Nc2c(C)c(N[C@H]3CC[C@H](N)CC3)nc3c(CO)cnn23)cc1
12,< 100 µM,Cc1c(N[C@H]2CC[C@H](N)CC2)nc2ccnn2c1Nc1ccc(OCC2CCCO2)cc1 (stereo not given in full)
13,< 100 µM,CCc1c(N[C@H]2CC[C@H](N)CC2)nc2ccnn2c1Nc1ccc(OC(F)(F)C(F)F)cc1
14,< 100 µM,Cc1c(N[C@H]2CC[C@H](N)CC2)nc2ccnn2c1Nc1ccc2[nH]ncc2c1
15,< 100 µM,Cc1cccc(-c2ccc(Nc3c(C)c(N[C@H]4CC[C@H](N)CC4)nc4ccnn34)cc2)c1
16,< 100 µM,CCOc1ccc(Nc2c(C)c(NC(C)(C)CO)nc3ccnn23)cc1
17,< 100 µM,CCOc1ccc(Nc2c(C)c(NC3CCCNC3)nc3c(C4CC4)cnn23)cc1 (stereo not given)
18,< 100 µM,Cc1ccccc1-c1ccc(Nc2c(C)c(N[C@H]3CC[C@H](N)CC3)nc3ccnn23)cc1
19,< 100 µM,CCOc1ccc(Nc2c(C(C)C)c(N[C@H]3CC[C@H](N)CC3)nc3ccnn23)cc1
20,< 100 µM,CCc1c(N[C@H]2CC[C@H](N)CC2)nc2ccnn2c1Nc1ccccc1OC
21,< 100 µM,Cc1c(N[C@H]2CC[C@H](N)CC2)nc2ccnn2c1Nc1ccc(OC2CCCC2)cc1
22,< 100 µM,COc1ccc(Nc2c(C)c(N[C@H]3CC[C@H](N)CC3)nc3ccnn23)cc1
23,< 100 µM,C=C(C)CNc1c(CC)c(N[C@H]2CC[C@H](N)CC2)nc2ccnn12
24,< 100 µM,CNC(=O)c1ccc(Nc2c(C)c(N[C@H]3CC[C@H](N)CC3)nc3ccnn23)cc1

row,IC50,Compound
1,< 100 µM,Cc1c(N[C@H]2CC[C@H](N)CC2)nc2ccnn2c1Nc1ccc(OCc2ccc(N)cc2)cc1
2,< 100 µM,CCOc1ccc(Nc2c(C)c(N[C@H]3CC[C@H](N)CC3)nc3c(C(=O)Nc4ccccn4)cnn23)cc1
3,< 100 µM,Cc1c(N[C@H]2CC[C@H](N)CC2)nc2ccnn2c1Nc1cccc(OCc2ccccc2Cl)c1
4,< 100 µM,Cc1c(N[C@H]2CC[C@H](N)CC2)nc2ccnn2c1Nc1ccc(-c2cccc(F)c2)cc1
5,< 100 µM,Cc1c(N[C@H]2CC[C@H](N)CC2)nc2ccnn2c1Nc1ccc(OCc2cccc(N)c2)cc1
6,< 100 µM,CCc1c(N[C@H]2CC[C@H](N)CC2)nc2ccnn2c1Nc1ccc(OC)cc1
7,< 100 µM,Cc1ccccc1COc1cccc(Nc2c(C)c(N[C@H]3CC[C@H](N)CC3)nc3ccnn23)c1
8,< 100 µM,COc1cccc(COc2ccc(Nc3c(C)c(N[C@H]4CC[C@H](N)CC4)nc4ccnn34)cc2)c1
9,< 100 µM,Cc1cscc1-c1ccc(Nc2c(C)c(N[C@H]3CC[C@H](N)CC3)nc3ccnn23)cc1
10,< 100 µM,Cc1c(N[C@H]2CC[C@H](N)CC2)nc2ccnn2c1Nc1ccc(-c2cc3ccccc3[nH]2)cc1
11,< 100 µM,Cc1c(N[C@H]2CC[C@H](N)CC2)nc2ccnn2c1Nc1ccc(-c2ccccc2F)cc1
12,< 100 µM,CCCCC(=O)c1cnn2c(Nc3ccc(OCC)cc3)c(C)c(N[C@H]3CC[C@H](N)CC3)nc12
13,< 100 µM,CCOc1ccc(Nc2c(C)c(NC3CCCNC3)nc3c(CC)cnn23)cc1 (stereo not given)
14,< 100 µM,CCOc1ccc(Nc2c(C)c(N[C@H]3CCNC3)nc3ccnn23)cc1
15,< 100 µM,Cc1c(N[C@H]2CC[C@H](N)CC2)nc2ccnn2c1Nc1ccc(-c2ccc(C#N)cc2)cc1
16,< 100 µM,CCc1c(NC2CCCNC2)nc2ccnn2c1Nc1ccc(OC)c(Cl)c1 (stereo not given)
17,< 100 µM,Cc1c(N[C@H]2CC[C@H](N)CC2)nc2ccnn2c1Nc1cccc(OC2CCCC2)c1
18,< 100 µM,CCOc1ccc(Nc2c(C)c(N[C@@H]3CCN(Cc4ccccc4)C3)nc3ccnn23)cc1
19,< 100 µM,N[C@H]1CC[C@H](Nc2cc(Nc3ccc(F)c(Cl)c3)n3ncc(I)c3n2)CC1
20,< 100 µM,Cc1c(N[C@H]2CC[C@H](N)CC2)nc2ccnn2c1Nc1cccc(Cl)c1
21,< 100 µM,CCOc1cccc(Nc2cc(N[C@H]3CC[C@H](N)CC3)nc3c(C#N)cnn23)c1
22,< 100 µM,Cc1c(N[C@H]2CC[C@H](N)CC2)nc2ccnn2c1Nc1ccc(-c2cccnc2)cc1
23,< 100 µM,Cc1c(N[C@H]2CC[C@H](N)CC2)nc2ccnn2c1Nc1ccc(OC(F)(F)F)c(Cl)c1
24,< 100 µM,CCOC(=O)c1cccc(Nc2c(C)c(N[C@H]3CC[C@H](N)CC3)nc3ccnn23)c1

row,IC50,Compound
1,< 100 µM,N[C@H]1CC[C@H](Nc2cc(Nc3ccc(F)c(Cl)c3)n3ncc(Cl)c3n2)CC1
2,< 100 µM,CCOc1ccc(Nc2c(C)c(N(C)C3CCCNC3)nc3ccnn23)cc1 (stereo not given)
3,< 100 µM,Cc1c(N[C@H]2CC[C@H](N)CC2)nc2ccnn2c1Nc1ccc(-c2ccsc2C=O)cc1
4,< 100 µM,N[C@H]1CC[C@H](Nc2cc(NCc3ccc(F)c(Cl)c3)n3ncc(Br)c3n2)CC1
5,< 100 µM,Cc1c(NC2CCCNC2)nc2ccnn2c1Nc1ccccc1F (stereo not given)
6,< 100 µM,Cc1c(N[C@H]2CC[C@H](N)CC2)nc2ccnn2c1Nc1ccc(-c2cccc(C(F)(F)F)c2)cc1
7,< 100 µM,Cc1c(N[C@H]2CC[C@H](N)CC2)nc2ccnn2c1Nc1ccc(OCCn2ccnc2)cc1
8,< 100 µM,Cc1c(N[C@H]2CC[C@H](N)CC2)nc2ccnn2c1Nc1ccc(OCc2ccccc2)cc1
9,< 100 µM,COc1cccc(COc2cccc(Nc3c(C)c(N[C@H]4CC[C@H](N)CC4)nc4ccnn34)c2)c1
10,< 100 µM,Cc1c(N[C@H]2CC[C@H](N)CC2)nc2ccnn2c1Nc1cccc(OCCC2CCCCC2)c1
11,< 100 µM,CCOc1ccc(Nc2c(C)c(N[C@H]3CC[C@H](N)CC3)nc3c(NC)cnn23)cc1
12,< 100 µM,N#Cc1cnn2c(Nc3ccc(F)c(Cl)c3)cc(N[C@H]3CC[C@H](N)CC3)nc12
13,< 100 µM,CCOc1ccc(Nc2c(C)c(N[C@H]3CC[C@H](N)CC3)nc3c(C(=O)Nc4ccncc4)cnn23)cc1
14,< 100 µM,Cc1c(N[C@H]2CC[C@H](N)CC2)nc2ccnn2c1Nc1ccc(OCCC2CCCCN2)cc1 (stereo not given in full)
15,< 100 µM,CCOc1ccc(Nc2c(C)c(N[C@H]3CC[C@H](N)CC3)nc3c(S(C)(=O)=O)cnn23)cc1
16,< 100 µM,Cc1c(N[C@H]2CC[C@H](N)CC2)nc2ccnn2c1Nc1ccc(-c2ccccc2)cc1
17,< 100 µM,Cc1c(N[C@H]2CC[C@H](N)CC2)nc2c(C#N)cnn2c1Nc1ccc(F)c(Cl)c1
18,< 100 µM,Cc1c(N[C@H]2CC[C@H](N)CC2)nc2ccnn2c1Nc1ccc(OCC2CCCN(C)C2)cc1 (stereo not given in full)
19,< 100 µM,CCc1c(NC2CCCNC2)nc2ccnn2c1Nc1ccc(Oc2ccc(C)cc2)cc1 (stereo not given)
20,< 100 µM,Cc1c(N[C@H]2CC[C@H](N)CC2)nc2ccnn2c1Nc1ccc(-c2cn[nH]c2)cc1
21,< 100 µM,Cc1c(N[C@H]2CC[C@H](N)CC2)nc2ccnn2c1Nc1ccc(OCc2cccc(Cl)c2)cc1
22,< 100 µM,Cc1c(N[C@H]2CC[C@H](N)CC2)nc2ccnn2c1Nc1ccc(C(=O)NCc2ccco2)cc1
23,< 100 µM,Cc1c(N[C@H]2CC[C@H](N)CC2)nc2ccnn2c1Nc1cccc(OCCn2ccnc2)c1
24,< 100 µM,CCOc1ccc(Nc2c(C)c(N[C@H]3CC[C@H](N)CC3)nc3c(C(=O)O)cnn23)cc1

row,IC50,Compound
1,< 100 µM,CCc1c(N[C@H]2CC[C@H](N)CC2)nc2ccnn2c1Nc1ccc(I)cc1
2,< 100 µM,Cc1c(N[C@H]2CC[C@H](N)CC2)nc2ccnn2c1Nc1ccc(-c2ccoc2)cc1
3,< 100 µM,CCc1c(N[C@H]2CC[C@H](N)CC2)nc2ccnn2c1Nc1ccc(OC)c(C(F)(F)F)c1
4,< 100 µM,Cc1c(N[C@H]2CC[C@H](N)CC2)nc2ccnn2c1Nc1cccc(I)c1
5,< 100 µM,CCc1c(N[C@H]2CC[C@H](N)CC2)nc2ccnn2c1Nc1cccc(C)c1
6,< 100 µM,Cc1nc2cc(Nc3c(C)c(N[C@H]4CC[C@H](N)CC4)nc4ccnn34)ccc2s1
7,< 100 µM,COc1cccc(-c2ccc(Nc3c(C)c(N[C@H]4CC[C@H](N)CC4)nc4ccnn34)cc2)c1
8,< 100 µM,Cc1ccc(Nc2c(C)c(NC3CCCNC3)nc3ccnn23)cc1C (stereo not given)
9,< 100 µM,Cc1csc(-c2ccc(Nc3c(C)c(N[C@H]4CC[C@H](N)CC4)nc4ccnn34)cc2)c1
10,< 100 µM,Cc1c(N[C@H]2CC[C@H](N)CC2)nc2ccnn2c1Nc1ccc(-c2cccc(OC(F)(F)F)c2)cc1
11,< 100 µM,Cc1c(N[C@H]2CC[C@H](N)CC2)nc2ccnn2c1Nc1ccc2cc[nH]c2c1
12,< 100 µM,CCc1c(N[C@H]2CC[C@H](N)CC2)nc2ccnn2c1Nc1ccccc1Cl
13,< 100 µM,Cc1c(N[C@H]2CC[C@H](N)CC2)nc2ccnn2c1Nc1ccc(OCCC2CCCCC2)cc1
14,< 100 µM,Cc1c(N[C@H]2CC[C@H](N)CC2)nc2ccnn2c1Nc1ccc(-c2cncnc2)cc1
15,< 100 µM,CCOc1ccccc1Nc1c(C)c(N[C@H]2CC[C@H](N)CC2)nc2ccnn12
16,< 100 µM,Cc1c(N[C@H]2CC[C@H](N)CC2)nc2ccnn2c1Nc1ccccc1
17,< 100 µM,CCc1c(N[C@H]2CC[C@H](N)CC2)nc2ccnn2c1NCc1ccccc1Cl
18,< 100 µM,Cc1c(N[C@H]2CC[C@H](N)CC2)nc2ccnn2c1Nc1ccc(OCc2ccc(Cl)cc2)cc1
19,< 100 µM,Cc1c(N[C@H]2CC[C@H](N)CC2)nc2ccnn2c1Nc1cccc(OCC(O)CO)c1 (stereo not given in full)
20,< 100 µM,CCCCOc1ccc(Nc2c(CC)c(N[C@H]3CC[C@H](N)CC3)nc3ccnn23)cc1
21,< 100 µM,Cc1c(N[C@H]2CC[C@H](N)CC2)nc2ccnn2c1Nc1cccc(Br)c1
22,< 100 µM,CCOc1ccc(Nc2c(C)c(N[C@H]3CC[C@H](N)CC3)nc3c(C#N)cnn23)cc1
23,< 100 µM,CCOc1ccc(Nc2c(C)c(N[C@H]3CC[C@H](N)CC3)nc3c(C4CC4)cnn23)cc1
